These results are taken from ChEMBL document CHEMBL5143578, “Elucidation of structure-activity relationship of humulanolides and identification of humulanolide analog as a novel HSP90 inhibitor” (Bioorg Med Chem Lett, 2022).

Calls of active or inactive are those of the source. The calls are words filed in the database; no cut-off is given here.

Experiment [1] relates to A549. Put plainly: Antiproliferative activity against human A549 cells incubated for 24 hrs by MTT assay. It counts as functional, cell-based. The settings on record: A549, 24 h. In general terms: Formazan colour is commonly taken as a measure of viable cells.
For experiment [2], the system named is Ca9-22. The experiment is described as follows: Antiproliferative activity against human Ca9-22 cells incubated for 24 hrs by MTT assay. It counts as functional, cell-based. The settings on record: Ca9-22, 24 h.
The test system of experiment [3] is CHL-1. The experiment is described as follows: Antiproliferative activity against human CHL-1 cells incubated for 24 hrs by MTT assay. It counts as functional, cell-based. Particulars: CHL-1, 24 h.
Experiment [4] concerns HCT-116. Put plainly: Antiproliferative activity against human HCT-116 cells incubated for 24 hrs by MTT assay. It counts as functional, cell-based. The settings on record: HCT-116, 24 h.
Experiment [5] deals with HeLa. The experiment is described as follows: Antiproliferative activity against human HeLa cells incubated for 24 hrs by MTT assay. In kind it is functional, cell-based.
For experiment [6], the system named is HT-1080. The experiment is described as follows: Antiproliferative activity against human HT-1080 cells incubated for 24 hrs by MTT assay. In kind it is functional, cell-based. Particulars: HT-1080, 24 h.
The test system of experiment [7] is PC-3. The experiment is described as follows: Antiproliferative activity against human PC-3 cells incubated for 24 hrs by MTT assay. Particulars: PC-3, 24 h. It counts as functional, cell-based.
For experiment [8], the system named is SK-MEL-28. Put plainly: Antiproliferative activity against human SK-MEL-28 cells incubated for 24 hrs by MTT assay. It counts as functional, cell-based. Particulars: SK-MEL-28, 24 h.
Experiment [9] concerns HT-1080. The experiment is described as follows: Upregulation of HSP70 protein expression in human HT-1080 cells by Western blotting analysis. It counts as functional, cell-based.
In experiment [10] the test system is HT-1080. Put plainly: Induction of cell morphological changes in human HT-1080 cells at 20 uM incubated for 24 hrs by phase contrast microscopic analysis. It counts as functional, cell-based.
Experiment [11] deals with T1, Heat shock protein HSP90 (Homo sapiens) (UniProt P07900+P08238). The experiment is described as follows: Inhibition of HSP90 in human HT-1080 cells assessed as upregulation of HSP70 protein expression measured after 24 hrs by Western blot analysis. It counts as cell-based. Particulars: dose 3-30 µM. (A western blot detects proteins with antibodies after separation by electrophoresis.)

Experiment [12] concerns the target T1, Heat shock protein HSP90 (Homo sapiens). Put plainly: Inhibition of HSP90 in human HT-1080 cells assessed as downregulation of Akt protein expression measured after 24 hrs by Western blot analysis. In kind it is cell-based. The settings on record: dose 3-30 µM.
For experiment [13] the target is unchanged. The experiment is described as follows: Inhibition of HSP90 in human HT-1080 cells assessed as downregulation of CDK4 protein expression measured after 24 hrs by Western blot analysis. It counts as cell-based. The settings on record: dose 3-30 µM.
The target is the same in experiment [14]. Put plainly: Inhibition of HSP90 in human HT-1080 cells assessed as decrease in CDK4 protein level by measuring half-life of CDK4 protein at 20 uM measured upto 24 hrs in the presence of cycloheximide by Western blotting analysis. In kind it is cell-based.
Experiment [15] has as its system HT-1080. Put plainly: Induction of cell morphological changes in human HT-1080 cells at 10 uM incubated for 24 hrs by phase contrast microscopic analysis. In kind it is functional, cell-based.

For orientation: IC50 means the concentration that inhibits the measured activity by half. A low value points to greater potency in that assay. Turning to `C/C1=C\CCC2=C[C@H](OC2=O)C(C)(C)/C=C/C1=O`, the IC50 in experiment [1] turned out to be 5.51 µM; in [2] it was 4.79 µM; in experiment [3], 4.71 µM; in experiment [4], 6.59 µM; in experiment [5], 8.64 µM; in experiment [6], 5.31 µM. For the same compound, the IC50 in experiment [7] was found to be 3.13 µM; in [8] it was 5.26 µM. For the same compound, the result in experiment [9] was Active.

Regarding `C/C1=C/CCC23C(=O)O[C@H]4[C@@H]2[C@@H](C1=O)[C@@H]3C4(C)C`, the IC50 in [1], in experiment [2], in experiment [3], in experiment [4], in experiment [5] and in experiment [6] was more than 10 µM each time. For the same compound, the IC50 in experiment [7] and in [8] was more than 10 µM in each case.

For `C/C1=C/CCC2=C[C@H](OC2=O)C(C)(C)/C=C\C1=O`, the IC50 in experiment [1] was more than 10 µM; in [2], 9.89 µM; in [3] it was more than 10 µM; in [4], more than 10 µM; in [5], more than 10 µM; in experiment [6], more than 10 µM. For the same compound, the IC50 in [7] and in [8] was more than 10 µM in each case.

As to `CC1(C)/C=C/C(=O)[C@@]2(C)O[C@H]2CCC2=C[C@@H]1OC2=O`, the IC50 came to 3.02 µM in [1]; 2.94 µM in experiment [2]; 3.63 µM in [3]; 1.22 µM in experiment [4]; 4.78 µM in [5]; 6.54 µM in experiment [6]. Moreover, the IC50 in experiment [7] is 1.81 µM; in experiment [8], 3.43 µM. For the same compound, the outcome in experiment [10] was Active. In addition, the inhibition entry in experiment [11], in experiment [12] and in [13] was “Active” in each case. Also, in [14], the T1/2 was 8 h.

As for `C/C1=C\CCC2=C[C@H](OC2=O)C(C)(C)/C=C/[C@@H]1O`, the IC50 in [1], in [2], in [3], in [4], in experiment [5] and in [6] was more than 10 µM each time. Also, the IC50 in experiment [7] and in experiment [8] was more than 10 µM each time.

Regarding `CC1(C)/C=C/[C@H](O)[C@@]2(C)O[C@H]2CCC2=C[C@@H]1OC2=O`, the IC50 in [1], in experiment [2], in experiment [3], in experiment [4], in [5] and in experiment [6] was more than 10 µM in each case. The IC50 in experiment [7] and in experiment [8] was more than 10 µM each time.

With `CC1(C)[C@H]2[C@H]3[C@@H]1OC(=O)C31CC[C@@H]3O[C@]3(C)C(=O)[C@H]21` (some centres undefined), the IC50 in experiment [1], in experiment [2], in experiment [3], in experiment [4], in experiment [5] and in experiment [6] was more than 10 µM throughout. Also, the IC50 in [7] and in experiment [8] was more than 10 µM throughout.

Turning to `CC1=CCCC23C(=O)O[C@H]4[C@@H]2[C@@H]([C@H]3C1=O)C4(C)C` (some centres undefined), the half-maximal inhibitory concentration (IC50) in experiment [1], in experiment [2], in [3], in [4], in experiment [5] and in experiment [6] was more than 10 µM each time. Further, the IC50 in experiment [7] and in experiment [8] was more than 10 µM throughout.

Consider `CC1(C)/C=C/C(=O)[C@@]2(C)O[C@@H]2CCC2=C[C@@H]1OC2=O`, for which the IC50 in experiment [1], in experiment [2], in [3], in experiment [4], in experiment [5] and in [6] was more than 10 µM throughout. Moreover, the IC50 in experiment [7] and in experiment [8] was more than 10 µM throughout.

In the case of `CC1(C)/C=C/[C@H](O)[C@@]2(C)O[C@@H]2CCC2=C[C@@H]1OC2=O`, the IC50 in [1], in experiment [2], in [3], in experiment [4], in experiment [5] and in experiment [6] was more than 10 µM in each case. In addition, the IC50 in [7] and in experiment [8] was more than 10 µM each time.

Consider `C/C1=C/CC[C@@H]2C(=O)O[C@H]3[C@@H]2C(=CC3(C)C)C1=O`, for which the IC50 in [1], in [2], in experiment [3], in experiment [4], in experiment [5] and in [6] was more than 10 µM each time. Also, the IC50 in [7] and in [8] was more than 10 µM throughout.

In the case of `C/C1=C/CCC2=C[C@H](OC2=O)C(C)(C)/C=C/C1=O`, the IC50 in experiment [1] is 6.62 µM; in experiment [2], 7.52 µM; in experiment [3] it was more than 10 µM; in experiment [4], 9.82 µM; in [5] it was 8.19 µM; in experiment [6] it was 8.17 µM. The IC50 in experiment [7] was 2.65 µM; in [8], more than 10 µM. The outcome in experiment [9] was Active.

Take `COC1=C2C[C@@H](C)C[C@H](OC)[C@H](O)[C@@H](C)/C=C(\C)[C@H](OC(N)=O)[C@@H](OC)/C=C\C=C(/C)C(=O)NC(=CC1=O)C2=O`: in experiment [15], the result was Active.
